Assay results published in patent US6020363A, “Isocoumarin derivatives and use thereof in drugs” (Mercian Corporation, priority 1998, dated 2000).

Columns and labels:
Assay type in all cases: in vivo, DBA/1J mice
[1] = test system: collagen-induced arthritis; assay: Inhibitory Effect on Collagen-Induced Arthritis (No. 2), arthritis score; conditions: oral, mean ± SE, maximum 16
Protocol: (§1) The preventive effect on the onset of collagen-induced arthritis was tested by using DBA/1J mice in groups of 5-8. Specifically, type II collagen was mixed with an equal volume of Freund's complete adjuvant and emulsified to prepare a 1 mg/ml emulsion. Mice were sensitized by administering 0.1 ml of this emulsion intracutaneously to the root of the tail. After 21 days, the mice were additionally immunized by emulsifying type II collagen in the same manner as before and administering 0.1 ml of the emulsion intraperitoneally so as to induce arthritis.
Animals having arthritis induced in the same manner as described above were used in groups of 7-8. Compound 3 was orally administered, once a day, for 21 days following the additional immunization in a dose of 1, 3 or 10 mg/kg body weight. For comparative purposes, MI43 was similarly administered to another group in a dose of 30 mg/kg body weight. According to the degree of rubor, swelling and rigidity in each of the forelegs and hind legs of the experimental animals, their inhibitory effect on collagen-induced arthritis was evaluated on the following basis by a score ranging from 0 to 4 (with a maximum value of 16).
0: No symptom is observed.
2: Two or more small joints, or a relatively large joint such as that of the wrist or ankle, show rubor or swelling.
4: The total swelling of the hand or foot reaches its peak and, moreover, is accompanied by joint rigidity.

[2] = Acute toxicity in mice; conditions: 100 mg/kg
Protocol: Among the compounds in accordance with the present invention, each of Compounds 1, 2 and 3 was orally or intraperitoneally administered to eight DBA/1J mice in a dose of 100 mg/kg body weight. […] This seems to indicate that the compounds used in the present invention have no or very little, if any, acute toxicity. Moreover, Compound 1, in a dose of 100 mg/kg body weight, or Compound 3, in a dose of 30 mg/kg body weight, was orally administered to eight mice of the aforesaid strain for 40 days. […] Thus, the compounds of the present invention have little subacute toxicity. Since other compounds in accordance with the present invention are estimated to have similar properties, the compounds of the present invention can be used very safely.

[3] = test system: collagen-induced arthritis; assay: Inhibitory Effect on Collagen-Induced Arthritis (No. 1), sole thickness; conditions: intraperitoneal, mean ± SD, *p < 0.05 vs control (8.02 ± 0.82)
Protocol: as §1
Starting from the day of the first sensitization with type II collagen, Compound 1 was orally administered, once a day, for 43 days in a dose of 10 or 30 mg/kg body weight. Similarly, each of Compounds 2 and 3 was intraperitoneally administered, once a day, for 43 days in a dose of 1 or 10 mg/kg body weight. Their inhibitory effect on collagen-induced arthritis was evaluated by measuring the sole thicknesses of the hind legs periodically with digital vernier calipers.

COc1cc(O)c2c(=O)oc(C(C)C(=O)O)cc2c1 (stereo not shown) [Compound 3, 2-(8-hydroxy-6-methoxy-1-oxo-1H-2-benzopyran-3-yl)propionic Acid]
Score after 37 days ([1]; 1 mg/kg/day, control 9.25 ± 1.35): 6.50 ± 1.49 | Score after 37 days ([1]; 3 mg/kg/day, control 9.25 ± 1.35): 5.00 ± 1.61 | Score after 37 days ([1]; 10 mg/kg/day, **p < 0.01 vs control (9.25 ± 1.35)): 3.50 ± 0.63 | evidence of toxicity, single administration ([2]; mouse, in vivo): no animal showed evidences of toxicity | mortality, single administration ([2]; oral or intraperitoneal, eight DBA/1J mice): No animal died | Sole thickness (sum of left and right, mm), after 37 days ([3]; 1 mg/kg/day): 7.08 ± 0.16 mm | Sole thickness (sum of left and right, mm), after 37 days ([3]; 10 mg/kg/day): 6.78 ± 0.98 mm
